Laboratory results published in ChEMBL document CHEMBL2029272, “7-Azabicyclo[2.2.1]heptane as a scaffold for the development of selective sigma-2 (σ2) receptor ligands” (Bioorg Med Chem Lett, 2012).
pKi: −log10 of the molar value.

Legend:
Rattus norvegicus = organism: Rattus norvegicus; assay: Inhibition of BZP receptor in rat brain at 10 uM; format: tissue-based
[1] = target: Histamine H1 receptor (Homo sapiens) (UniProt P35367); assay: Inhibition of H1 receptor at 10 uM
[2] = Inhibition of GABA-A receptor at 10 uM
[3] = target: 5-hydroxytryptamine receptor 5A (Homo sapiens) (UniProt P47898); assay: Inhibition of 5-HT5A receptor at 10 uM
5-hydroxytryptamine receptor 5A (Homo sapiens), sequence (P47898 whole entry): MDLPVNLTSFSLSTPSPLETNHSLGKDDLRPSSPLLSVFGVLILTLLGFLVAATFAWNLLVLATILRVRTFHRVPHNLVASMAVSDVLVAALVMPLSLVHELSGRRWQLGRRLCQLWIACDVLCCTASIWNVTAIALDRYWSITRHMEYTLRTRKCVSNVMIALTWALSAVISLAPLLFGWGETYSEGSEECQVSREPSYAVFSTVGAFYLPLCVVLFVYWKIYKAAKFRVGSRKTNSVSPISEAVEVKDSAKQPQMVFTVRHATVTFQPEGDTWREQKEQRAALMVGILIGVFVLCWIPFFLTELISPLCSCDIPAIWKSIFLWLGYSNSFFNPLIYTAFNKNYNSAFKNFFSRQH

[4] = target: T1, 5-hydroxytryptamine receptor 2C (Homo sapiens) (UniProt P28335); assay: Inhibition of 5-HT2C receptor at 10 uM
T1 sequence (whole entry): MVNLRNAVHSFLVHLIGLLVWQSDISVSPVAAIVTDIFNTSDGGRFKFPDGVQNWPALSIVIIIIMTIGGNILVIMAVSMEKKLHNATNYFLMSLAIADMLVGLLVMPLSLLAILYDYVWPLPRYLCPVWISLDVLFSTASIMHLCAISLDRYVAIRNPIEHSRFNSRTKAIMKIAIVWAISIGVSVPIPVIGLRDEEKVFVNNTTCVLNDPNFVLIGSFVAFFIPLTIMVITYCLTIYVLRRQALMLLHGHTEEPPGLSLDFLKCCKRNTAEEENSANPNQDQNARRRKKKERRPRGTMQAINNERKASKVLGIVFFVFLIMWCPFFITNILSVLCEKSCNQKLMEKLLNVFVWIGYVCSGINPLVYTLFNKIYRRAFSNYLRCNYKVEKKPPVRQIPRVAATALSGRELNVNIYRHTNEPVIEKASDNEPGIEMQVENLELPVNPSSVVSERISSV

[5] = target: 5-hydroxytryptamine receptor 7 (Homo sapiens) (UniProt P34969); assay: Inhibition of 5-HT7 receptor at 10 uM
5-hydroxytryptamine receptor 7 (Homo sapiens), sequence (P34969 whole entry): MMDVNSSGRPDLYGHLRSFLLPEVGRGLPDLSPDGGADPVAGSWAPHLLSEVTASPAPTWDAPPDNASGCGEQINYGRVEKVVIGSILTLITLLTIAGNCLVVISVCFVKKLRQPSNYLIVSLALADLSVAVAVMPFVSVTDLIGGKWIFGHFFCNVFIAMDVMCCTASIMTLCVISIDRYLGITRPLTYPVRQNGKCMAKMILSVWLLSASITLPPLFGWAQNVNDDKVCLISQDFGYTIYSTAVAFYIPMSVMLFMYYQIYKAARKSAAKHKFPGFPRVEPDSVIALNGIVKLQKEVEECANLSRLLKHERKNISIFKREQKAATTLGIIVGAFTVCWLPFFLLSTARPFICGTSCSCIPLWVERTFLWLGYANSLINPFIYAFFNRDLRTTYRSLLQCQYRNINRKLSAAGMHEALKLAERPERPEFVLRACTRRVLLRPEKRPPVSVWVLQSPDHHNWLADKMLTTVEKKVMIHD

[6] = target: Kappa-type opioid receptor (Homo sapiens) (UniProt P41145); assay: Inhibition of kappa opioid receptor at 10 uM
Kappa-type opioid receptor (Homo sapiens), sequence (P41145 whole entry): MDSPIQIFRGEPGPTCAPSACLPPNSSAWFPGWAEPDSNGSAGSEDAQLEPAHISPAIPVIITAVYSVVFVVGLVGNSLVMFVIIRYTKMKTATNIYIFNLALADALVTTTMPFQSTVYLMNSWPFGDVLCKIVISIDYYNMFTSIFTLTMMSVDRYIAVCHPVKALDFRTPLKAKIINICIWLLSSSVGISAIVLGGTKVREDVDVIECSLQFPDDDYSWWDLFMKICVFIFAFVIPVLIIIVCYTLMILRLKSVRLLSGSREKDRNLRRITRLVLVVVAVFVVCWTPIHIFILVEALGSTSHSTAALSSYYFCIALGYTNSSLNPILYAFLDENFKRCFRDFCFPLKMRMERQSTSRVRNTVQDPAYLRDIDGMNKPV

[7] = target: Histamine H2 receptor (Homo sapiens) (UniProt P25021); assay: Inhibition of H2 receptor at 10 uM
Histamine H2 receptor (Homo sapiens), sequence (P25021 whole entry): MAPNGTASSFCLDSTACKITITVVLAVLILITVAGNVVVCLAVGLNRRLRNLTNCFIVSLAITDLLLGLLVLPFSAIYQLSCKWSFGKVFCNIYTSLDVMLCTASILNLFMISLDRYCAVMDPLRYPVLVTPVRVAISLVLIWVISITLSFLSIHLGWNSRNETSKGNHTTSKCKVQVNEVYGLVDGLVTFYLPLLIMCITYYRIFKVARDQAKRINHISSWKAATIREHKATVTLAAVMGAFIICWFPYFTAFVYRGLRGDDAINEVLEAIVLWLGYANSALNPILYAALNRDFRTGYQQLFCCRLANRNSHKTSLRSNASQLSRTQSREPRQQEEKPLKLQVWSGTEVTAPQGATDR

[8] = target: T2, Alpha-2A adrenergic receptor (Homo sapiens) (UniProt P08913); assay: Inhibition of alpha2A adrenergic receptor at 10 uM
T2 sequence (whole entry): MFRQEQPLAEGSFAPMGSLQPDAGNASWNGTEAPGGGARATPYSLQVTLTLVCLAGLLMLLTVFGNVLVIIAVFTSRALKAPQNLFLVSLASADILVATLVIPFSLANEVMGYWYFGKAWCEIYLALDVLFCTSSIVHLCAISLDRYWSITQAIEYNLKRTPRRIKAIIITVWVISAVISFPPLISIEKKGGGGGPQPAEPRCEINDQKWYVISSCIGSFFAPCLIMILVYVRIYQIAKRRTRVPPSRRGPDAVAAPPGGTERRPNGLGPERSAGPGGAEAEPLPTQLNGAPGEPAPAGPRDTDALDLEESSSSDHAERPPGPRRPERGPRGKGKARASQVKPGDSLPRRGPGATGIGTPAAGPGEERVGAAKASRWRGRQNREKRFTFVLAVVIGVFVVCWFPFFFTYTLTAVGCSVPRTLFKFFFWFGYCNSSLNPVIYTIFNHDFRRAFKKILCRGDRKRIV

[9] = target: 5-hydroxytryptamine receptor 1B (Homo sapiens) (UniProt P28222); assay: Inhibition of 5-HT1B receptor at 10 uM
5-hydroxytryptamine receptor 1B (Homo sapiens), sequence (P28222 whole entry): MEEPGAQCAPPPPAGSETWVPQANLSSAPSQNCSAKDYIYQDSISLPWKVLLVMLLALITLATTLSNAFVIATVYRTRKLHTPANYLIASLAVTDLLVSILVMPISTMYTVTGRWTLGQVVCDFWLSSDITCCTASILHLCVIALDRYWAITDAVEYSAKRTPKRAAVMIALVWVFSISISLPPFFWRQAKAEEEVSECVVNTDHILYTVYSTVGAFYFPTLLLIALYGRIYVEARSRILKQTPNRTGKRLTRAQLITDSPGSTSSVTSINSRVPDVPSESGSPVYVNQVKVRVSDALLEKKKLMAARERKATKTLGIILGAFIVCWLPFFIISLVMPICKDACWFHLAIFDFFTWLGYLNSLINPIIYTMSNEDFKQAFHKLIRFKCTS

[10] = target: T3, Alpha-1D adrenergic receptor (Homo sapiens) (UniProt P25100); assay: Inhibition of alpha1D adrenergic receptor at 10 uM
T3 sequence (whole entry): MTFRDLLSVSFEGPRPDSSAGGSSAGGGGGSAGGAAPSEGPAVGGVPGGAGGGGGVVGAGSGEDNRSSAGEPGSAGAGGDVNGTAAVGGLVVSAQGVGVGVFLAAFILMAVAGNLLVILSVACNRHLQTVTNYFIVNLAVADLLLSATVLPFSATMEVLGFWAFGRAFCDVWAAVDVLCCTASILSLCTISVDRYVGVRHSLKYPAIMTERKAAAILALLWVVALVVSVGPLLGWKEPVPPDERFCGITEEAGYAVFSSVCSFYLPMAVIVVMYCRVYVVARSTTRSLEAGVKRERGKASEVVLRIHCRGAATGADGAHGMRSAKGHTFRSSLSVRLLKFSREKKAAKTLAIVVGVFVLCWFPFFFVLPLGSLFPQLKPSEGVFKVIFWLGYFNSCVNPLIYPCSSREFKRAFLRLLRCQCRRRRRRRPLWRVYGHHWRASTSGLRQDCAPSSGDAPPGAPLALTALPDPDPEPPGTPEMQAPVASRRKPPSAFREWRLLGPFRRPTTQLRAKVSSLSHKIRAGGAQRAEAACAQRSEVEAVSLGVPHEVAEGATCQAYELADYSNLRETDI

[11] = target: T4, D(4) dopamine receptor (Homo sapiens) (UniProt P21917); assay: Inhibition of D4 dopamine receptor at 10 uM
T4 sequence (whole entry): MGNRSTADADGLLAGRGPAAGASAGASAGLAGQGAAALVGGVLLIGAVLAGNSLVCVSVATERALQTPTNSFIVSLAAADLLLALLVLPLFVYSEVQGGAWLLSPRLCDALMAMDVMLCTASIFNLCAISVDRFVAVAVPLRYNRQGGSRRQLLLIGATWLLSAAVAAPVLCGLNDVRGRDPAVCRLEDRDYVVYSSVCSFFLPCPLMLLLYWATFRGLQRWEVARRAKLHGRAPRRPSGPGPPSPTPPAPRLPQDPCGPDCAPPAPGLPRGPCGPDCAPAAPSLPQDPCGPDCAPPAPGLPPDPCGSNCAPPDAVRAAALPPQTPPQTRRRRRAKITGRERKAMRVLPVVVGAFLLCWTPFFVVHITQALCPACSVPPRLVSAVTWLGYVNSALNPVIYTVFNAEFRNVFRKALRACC

[12] = target: D(1A) dopamine receptor (Homo sapiens) (UniProt P21728); assay: Inhibition of D1 dopamine receptor at 10 uM
D(1A) dopamine receptor (Homo sapiens), sequence (P21728 whole entry): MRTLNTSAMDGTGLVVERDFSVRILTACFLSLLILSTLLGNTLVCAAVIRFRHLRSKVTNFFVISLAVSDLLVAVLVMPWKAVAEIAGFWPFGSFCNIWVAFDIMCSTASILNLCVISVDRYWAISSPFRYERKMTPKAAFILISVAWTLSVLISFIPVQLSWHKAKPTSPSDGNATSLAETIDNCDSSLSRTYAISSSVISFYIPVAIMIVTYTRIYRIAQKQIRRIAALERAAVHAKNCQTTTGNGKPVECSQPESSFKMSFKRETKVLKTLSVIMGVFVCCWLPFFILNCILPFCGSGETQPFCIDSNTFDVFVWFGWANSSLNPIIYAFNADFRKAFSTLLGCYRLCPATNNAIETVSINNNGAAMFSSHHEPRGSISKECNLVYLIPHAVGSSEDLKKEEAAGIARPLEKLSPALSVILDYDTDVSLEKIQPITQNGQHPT

[13] = target: Beta-2 adrenergic receptor (Homo sapiens) (UniProt P07550); assay: Inhibition of beta2 adrenergic receptor at 10 uM
Beta-2 adrenergic receptor (Homo sapiens), sequence (P07550 whole entry, looked up): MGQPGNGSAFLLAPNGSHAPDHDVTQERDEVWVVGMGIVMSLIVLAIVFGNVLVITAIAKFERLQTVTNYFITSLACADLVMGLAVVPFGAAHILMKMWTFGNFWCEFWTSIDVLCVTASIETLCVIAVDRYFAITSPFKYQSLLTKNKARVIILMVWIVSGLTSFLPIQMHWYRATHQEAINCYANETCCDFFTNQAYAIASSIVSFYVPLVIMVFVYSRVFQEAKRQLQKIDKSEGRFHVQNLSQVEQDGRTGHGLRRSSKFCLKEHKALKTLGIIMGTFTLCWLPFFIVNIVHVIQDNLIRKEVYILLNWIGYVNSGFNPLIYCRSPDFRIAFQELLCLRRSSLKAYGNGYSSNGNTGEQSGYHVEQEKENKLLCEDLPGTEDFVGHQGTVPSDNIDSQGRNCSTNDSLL

[14] = target: Sodium-dependent noradrenaline transporter (Homo sapiens) (UniProt P23975); assay: Inhibition of NET at 10 uM
[15] = target: Delta-type opioid receptor (Homo sapiens) (UniProt P41143); assay: Inhibition of delta opioid receptor at 10 uM
Delta-type opioid receptor (Homo sapiens), sequence (P41143 whole entry): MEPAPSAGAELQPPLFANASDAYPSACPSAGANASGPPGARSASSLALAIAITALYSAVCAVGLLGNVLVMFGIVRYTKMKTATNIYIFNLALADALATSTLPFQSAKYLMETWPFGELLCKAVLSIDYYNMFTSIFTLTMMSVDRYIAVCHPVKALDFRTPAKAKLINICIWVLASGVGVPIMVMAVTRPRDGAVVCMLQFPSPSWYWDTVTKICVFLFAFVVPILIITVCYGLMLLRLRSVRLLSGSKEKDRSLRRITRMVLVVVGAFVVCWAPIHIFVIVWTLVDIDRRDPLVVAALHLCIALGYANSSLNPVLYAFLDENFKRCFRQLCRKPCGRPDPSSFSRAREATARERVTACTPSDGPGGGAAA

[16] = target: Histamine H4 receptor (Homo sapiens) (UniProt Q9H3N8); assay: Inhibition of H4 receptor at 10 uM
Histamine H4 receptor (Homo sapiens), sequence (Q9H3N8 whole entry): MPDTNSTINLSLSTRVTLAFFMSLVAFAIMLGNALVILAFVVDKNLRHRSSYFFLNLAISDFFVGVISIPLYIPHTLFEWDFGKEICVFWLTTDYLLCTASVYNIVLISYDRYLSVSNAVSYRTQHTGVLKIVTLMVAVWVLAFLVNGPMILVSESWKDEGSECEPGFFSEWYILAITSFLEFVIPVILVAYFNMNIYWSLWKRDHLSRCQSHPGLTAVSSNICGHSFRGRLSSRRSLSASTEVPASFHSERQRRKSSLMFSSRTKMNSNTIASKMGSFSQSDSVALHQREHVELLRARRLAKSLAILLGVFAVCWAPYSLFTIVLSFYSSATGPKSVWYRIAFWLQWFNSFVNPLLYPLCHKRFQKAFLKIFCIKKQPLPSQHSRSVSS

[17] = target: Sigma non-opioid intracellular receptor 1 (Rattus norvegicus, UniProt Q9R0C9); assay: Displacement of [3H](+)-pentazocine from sigma1 receptor in rat brain homogenate; format: tissue-based
Sigma non-opioid intracellular receptor 1, sequence (Q9R0C9 whole entry): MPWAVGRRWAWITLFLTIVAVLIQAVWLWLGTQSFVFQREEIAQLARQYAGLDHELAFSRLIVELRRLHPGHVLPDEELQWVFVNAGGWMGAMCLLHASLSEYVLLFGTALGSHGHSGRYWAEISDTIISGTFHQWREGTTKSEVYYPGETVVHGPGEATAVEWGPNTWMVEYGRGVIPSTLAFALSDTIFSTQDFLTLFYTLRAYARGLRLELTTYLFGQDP

[18] = target: Sodium-dependent serotonin transporter (Homo sapiens, UniProt P31645); assay: Inhibition of SERT at 10 uM
[19] = target: 5-hydroxytryptamine receptor 2B (Homo sapiens) (UniProt P41595); assay: Inhibition of 5-HT2B receptor at 10 uM
D(2) dopamine receptor = D(2) dopamine receptor (Homo sapiens, UniProt P14416); assay: Inhibition of D2 dopamine receptor at 10 uM
D(2) dopamine receptor, sequence (P14416 whole entry): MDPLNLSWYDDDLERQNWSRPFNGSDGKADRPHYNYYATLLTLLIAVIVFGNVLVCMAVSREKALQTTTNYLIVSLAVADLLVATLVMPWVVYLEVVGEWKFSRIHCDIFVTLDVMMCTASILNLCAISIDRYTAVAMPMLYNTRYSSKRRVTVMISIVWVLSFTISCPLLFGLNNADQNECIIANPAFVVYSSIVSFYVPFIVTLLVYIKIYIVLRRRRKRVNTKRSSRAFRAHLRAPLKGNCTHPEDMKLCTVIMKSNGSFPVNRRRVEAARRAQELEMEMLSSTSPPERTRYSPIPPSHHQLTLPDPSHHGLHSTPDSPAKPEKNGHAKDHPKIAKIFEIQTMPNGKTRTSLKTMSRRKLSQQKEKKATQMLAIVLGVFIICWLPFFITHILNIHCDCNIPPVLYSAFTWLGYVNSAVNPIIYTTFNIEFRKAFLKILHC

Histamine H1 receptor (Homo sapiens), sequence (P35367 whole entry): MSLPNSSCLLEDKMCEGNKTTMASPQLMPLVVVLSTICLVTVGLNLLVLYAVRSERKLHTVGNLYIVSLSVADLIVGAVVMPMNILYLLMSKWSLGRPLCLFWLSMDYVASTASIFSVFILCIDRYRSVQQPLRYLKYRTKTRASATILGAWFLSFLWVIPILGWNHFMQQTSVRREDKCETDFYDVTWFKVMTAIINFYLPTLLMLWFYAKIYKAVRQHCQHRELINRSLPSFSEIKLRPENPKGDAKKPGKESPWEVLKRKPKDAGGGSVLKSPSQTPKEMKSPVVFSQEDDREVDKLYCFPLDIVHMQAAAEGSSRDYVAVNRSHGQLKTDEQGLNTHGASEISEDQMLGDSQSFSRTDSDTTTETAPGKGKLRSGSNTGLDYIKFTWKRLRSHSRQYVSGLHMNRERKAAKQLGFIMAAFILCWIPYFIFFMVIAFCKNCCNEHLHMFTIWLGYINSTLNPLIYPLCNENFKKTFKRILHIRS

SMILES	inhibition (Rattus norvegicus) [%]	inhibition [1] [%]	inhibition [2] [%]	inhibition [3] [%]	inhibition [4] [%]	inhibition [5] [%]	inhibition [6] [%]	inhibition [7] [%]	inhibition [8] [%]	inhibition [9] [%]	inhibition [10] [%]	inhibition [11] [%]	inhibition [12] [%]	inhibition [13] [%]	inhibition [14] [%]	inhibition [15] [%]	inhibition [16] [%]	pKi [17]	inhibition [18] [%]	inhibition [19] [%]	further results
C1CCC(CN2CCCC2)CC1	< 50	< 50	< 50	< 50	< 50	< 50	< 50	< 50	< 50	< 50	< 50	< 50	< 50	< 50	< 50	< 50	< 50	7.29	< 50	< 50	inhibition (D(2) dopamine receptor): < 50%
C1CCC(CN2C3CCC2CC3)CC1	< 50	< 50	< 50	< 50	< 50	< 50	< 50	< 50	< 50	< 50	< 50	< 50	< 50	< 50	< 50	< 50	< 50	7.66	< 50	< 50	inhibition (D(2) dopamine receptor): < 50%
C1CC2CCC1N2CC12C3C4C5C3C1C5C42 (stereo not drawn)	< 50	< 50	< 50	< 50	< 50	< 50	< 50	< 50	< 50	< 50	< 50	< 50	< 50	< 50	< 50	< 50	< 50	8.15	< 50	< 50	inhibition (D(2) dopamine receptor): < 50%
